Test results published in patent publication US10647713B2 (Nimbus Lakshmi, Inc., priority 2016, dated 2020).

These molecules were tested against human TYK2 (JH2domain-pseudokinase) (Homo sapiens (Human), UniProt P29597) (assay: TYK2 JH2 Domain Binding Assay (KINOMEscan, DiscoveRx)). Settings: 11-point dilution, duplicate.
human TYK2 (JH2domain-pseudokinase), sequence (P29597 556-888): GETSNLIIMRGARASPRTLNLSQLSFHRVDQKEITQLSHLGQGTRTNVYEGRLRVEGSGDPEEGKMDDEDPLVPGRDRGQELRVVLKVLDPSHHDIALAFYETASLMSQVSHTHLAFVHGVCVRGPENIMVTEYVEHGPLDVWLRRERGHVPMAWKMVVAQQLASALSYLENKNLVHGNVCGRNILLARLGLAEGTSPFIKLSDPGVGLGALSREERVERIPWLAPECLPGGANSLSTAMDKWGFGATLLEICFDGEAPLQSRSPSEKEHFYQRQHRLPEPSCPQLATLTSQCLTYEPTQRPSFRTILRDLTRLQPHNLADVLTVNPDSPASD
Method in brief: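 TYK2 JH2 (G556–D888)–NFkB DBD fusion, DNA-tagged, from HEK293 extracts (<0.1 nM) competed against immobilised biotinylated ligand for 1 h at room temperature, 0.9% DMSO. Bead-retained kinase quantified by qPCR; Kd from 11-point 3-fold series (top 30,000 nM, duplicate), Hill fit with slope −1.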
With `CS(=O)(=O)c1cc([C@H]2CCCOC2)ccc1Nc1cc(NC(=O)[C@H]2CC2(F)F)nc2[nH]c(C(F)F)nc12` [I-310, (R)—N-(2-(difluoromethyl)-7-((2-(methylsulfonyl)-4-((R)-tetrahydro-2H-pyran-3-yl)phenyl)amino)-3H-imidazo[4,5-b]pyridin-5-yl)-2,2-difluorocyclopropane-1-carboxamide] the Kd was 0.5 to 1 nM. In the case of `CS(=O)(=O)c1cc([C@H]2CCCOC2)ccc1Nc1cc(NC(=O)[C@@H]2CC2(F)F)nc2[nH]c(C(F)F)nc12` [I-311, (S)—N-(2-(difluoromethyl)-7-((2-(methylsulfonyl)-4-((R)-tetrahydro-2H-pyran-3-yl)phenyl)amino)-3H-imidazo[4,5-b]pyridin-5-yl)-2,2-difluorocyclopropane-1-carboxamide], the Kd is reported as 1 to 10 nM. In the case of `Cc1nc2c(Nc3ccc(-c4nc(C)c(C)s4)cc3S(C)(=O)=O)cc(NC(=O)C3CC3)nc2[nH]1` [I-312, N-(7-((4-(4,5-dimethylthiazol-2-yl)-2-(methylsulfonyl)phenyl)amino)-2-methyl-3H-imidazo[4,5-b]pyridin-5-yl)cyclopropanecarboxamide], the Kd is reported as 0.1 to 0.5 nM. Work on `Cc1cc(-c2ccc(Nc3cc(NC(=O)[C@@H]4CC4(F)F)nc4[nH]c(C(F)F)nc34)c(S(C)(=O)=O)c2)nn1C` [I-313, (S)—N-(2-(difluoromethyl)-7-((4-(1,5-dimethyl-1H-pyrazol-3-yl)-2-(methylsulfonyl)phenyl)amino)-3H-imidazo[4,5-b]pyridin-5-yl)-2,2-difluorocyclopropane-1-carboxamide] yielded a Kd of 0.5 to 1 nM. For `Cc1cc(-c2ccc(Nc3cc(NC(=O)[C@H]4CC4(F)F)nc4[nH]c(C(F)F)nc34)c(S(C)(=O)=O)c2)nn1C` [I-314, (R)—N-(2-(difluoromethyl)-7-((4-(1,5-dimethyl-1H-pyrazol-3-yl)-2-(methylsulfonyl)phenyl)amino)-3H-imidazo[4,5-b]pyridin-5-yl)-2,2-difluorocyclopropane-1-carboxamide], the Kd was 1 to 10 nM. With `Cc1cn(C)nc1-c1ccc(Nc2cc(Nc3cnc(C)c(C)n3)nc3[nH]c(C(F)F)nc23)c(S(C)(=O)=O)c1` [I-315, 2-(difluoromethyl)-N7-(4-(1,4-dimethyl-1H-pyrazol-3-yl)-2-(methylsulfonyl)phenyl)-N5-(5,6-dimethylpyrazin-2-yl)-3H-imidazo[4,5-b]pyridine-5,7-diamine] the Kd was 0.1 to 0.5 nM. `CS(=O)(=O)c1cc([C@@H]2CCCO2)ccc1Nc1cc(NC(=O)[C@@H]2CC2(F)F)nc2[nH]c(C(F)F)nc12` [I-316, (S)—N-(2-(difluoromethyl)-7-((2-(methylsulfonyl)-4-((S)-tetrahydrofuran-2-yl)phenyl)amino)-3-imidazo[4,5-b]pyridin-5-yl)-2,2-difluorocyclopropane-1-carboxamide] gave a Kd of 0.5 to 1 nM. Molecule `CS(=O)(=O)c1cc([C@@H]2CCCO2)ccc1Nc1cc(NC(=O)[C@H]2CC2(F)F)nc2[nH]c(C(F)F)nc12` [I-317, (R)—N-(2-(difluoromethyl)-7-((2-(methylsulfonyl)-4-((S)-tetrahydrofuran-2-yl)phenyl)amino)-3-imidazo[4,5-b]pyridin-5-yl)-2,2-difluorocyclopropane-1-carboxamide] has a Kd of 0.1 to 0.5 nM. `CS(=O)(=O)c1cc(C2CCC2)ccc1Nc1cc(NC(=O)[C@@H]2CC2(F)F)nc2[nH]c(C(F)F)nc12` [I-318, (S)—N-(7-((4-cyclobutyl-2-(methylsulfonyl)phenyl)amino)-2-(difluoromethyl)-3H-imidazo[4,5-b]pyridin-5-yl)-2,2-difluorocyclopropane-1-carboxamide] showed a Kd of over 10 nM. For `CS(=O)(=O)c1cc(C2CCC2)ccc1Nc1cc(NC(=O)[C@H]2CC2(F)F)nc2[nH]c(C(F)F)nc12` [I-319, (R)—N-(7-((4-cyclobutyl-2-(methylsulfonyl)phenyl)amino)-2-(difluoromethyl)-3H-imidazo[4,5-b]pyridin-5-yl)-2,2-difluorocyclopropane-1-carboxamide], the Kd was over 10 nM. With `COc1c(Nc2cc(NC(=O)C3CC3)nc3[nH]c(C(F)F)nc23)cccc1-c1nc(C)cs1` [I-320, N-(2-(difluoromethyl)-7-((2-methoxy-3-(4-methylthiazol-2-yl)phenyl)amino)-3H-imidazo[4,5-b]pyridin-5-yl)cyclopropanecarboxamide] the Kd was 1 to 10 nM. Molecule `COc1c(Nc2cc(NC(=O)C3CC3)nc3[nH]c(C)nc23)cccc1-c1nc(C)cs1` [I-321, N-(7-((2-methoxy-3-(4-methylthiazol-2-yl)phenyl)amino)-2-methyl-3H-imidazo[4,5-b]pyridin-5-yl)cyclopropanecarboxamide] has a Kd of 1 to 10 nM. For `Cn1cnc(-c2ccc(Nc3cc(NC(=O)[C@@H]4C[C@@H]4F)nc4[nH]c(C(F)F)nc34)c(S(C)(=O)=O)c2)c1` [I-322, (1S,2S)—N-(2-(difluoromethyl)-7-((4-(1-methyl-1H-imidazol-4-yl)-2-(methylsulfonyl)phenyl)amino)-3H-imidazo[4,5-b]pyridin-5-yl)-2-fluorocyclopropane-1-carboxamide], the Kd was 0.1 to 0.5 nM. For `Cc1nc2c(Nc3ccc([C@@H]4CCCCO4)cc3S(C)(=O)=O)cc(NC(=O)[C@H]3CC3(F)F)nc2[nH]1` [I-323, 2,2-difluoro-N-(2-methyl-7-((2-(methylsulfonyl)-4-((S)-tetrahydro-2H-pyran-2-yl)phenyl)amino)-3H-imidazo[4,5-b]pyridin-5-yl)cyclopropane-1-carboxamide], the Kd was 0.1 to 0.5 nM. In the case of `CS(=O)(=O)c1cc([C@@H]2CCCCO2)ccc1Nc1cc(NC(=O)C2CC2(F)F)nc2[nH]c(C(F)F)nc12` (stereo partly drawn) [I-325, N-(2-(difluoromethyl)-7-((2-(methylsulfonyl)-4-((S)-tetrahydro-2H-pyran-2-yl)phenyl)amino)-3H-imidazo[4,5-b]pyridin-5-yl)-2,2-difluorocyclopropane-1-carboxamide], the Kd is reported as 0.5 to 1 nM. Work on `CS(=O)(=O)c1cc([C@H]2CCCCO2)ccc1Nc1cc(NC(=O)[C@H]2CC2(F)F)nc2[nH]c(C(F)F)nc12` [I-326, N-(2-(difluoromethyl)-7-((2-(methylsulfonyl)-4-((R)-tetrahydro-2H-pyran-2-yl)phenyl)amino)-3H-imidazo[4,5-b]pyridin-5-yl)-2,2-difluorocyclopropane-1-carboxamide] yielded a Kd of 1 to 10 nM. `CS(=O)(=O)c1cc([C@@H]2CCCO2)ccc1Nc1cc(NC(=O)C2CC2(F)F)nc2[nH]c(C(F)F)nc12` (stereo partly drawn) [I-327, N-(2-(difluoromethyl)-7-((2-(methylsulfonyl)-4-((S)-tetrahydrofuran-2-yl)phenyl)amino)-3H-imidazo[4,5-b]pyridin-5-yl)-2,2-difluorocyclopropane-1-carboxamide] showed a Kd of 0.1 to 0.5 nM. `CN=S(C)(=O)c1ccccc1Nc1cc(NC(=O)C2CC2)nc2[nH]c(C)nc12` (stereo not shown) [I-328, N-(7-((2-(N,S-dimethylsulfonimidoyl)phenyl)amino)-2-methyl-3H-imidazo[4,5-b]pyridin-5-yl)cyclopropanecarboxamide] was tested, and the Kd was 0.1 to 0.5 nM. `CS(=O)(=O)c1cc([C@H]2CCCO2)ccc1Nc1cc(NC(=O)C2CC2(F)F)nc2[nH]c(C(F)F)nc12` (stereo partly drawn) [I-329, N-(2-(difluoromethyl)-7-((2-(methylsulfonyl)-4-((R)-tetrahydrofuran-2-yl)phenyl)amino)-3H-imidazo[4,5-b]pyridin-5-yl)-2,2-difluorocyclopropane-1-carboxamide] was tested, and the Kd was 1 to 10 nM. For `Cc1nc2c(Nc3ccc(C4CCC(C)(C)O4)cc3S(C)(=O)=O)cc(NC(=O)C3CC3)nc2[nH]1` (stereo not shown) [I-330, N-(7-((4-(5,5-dimethyltetrahydrofuran-2-yl)-2-(methylsulfonyl)phenyl)amino)-2-methyl-3H-imidazo[4,5-b]pyridin-5-yl)cyclopropanecarboxamide], the Kd was 0.1 to 0.5 nM. `Cc1c(-c2ccc(Nc3cc(NC(=O)C4CC4(F)F)nc4[nH]c(C(F)F)nc34)c(S(C)(=O)=O)c2)cnn1C` (stereo not shown) [I-331, N-(2-(difluoromethyl)-7-((4-(1,5-dimethyl-1H-pyrazol-4-yl)-2-(methylsulfonyl)phenyl)amino)-3H-imidazo[4,5-b]pyridin-5-yl)-2,2-difluorocyclopropane-1-carboxamide] gave a Kd of 0.1 to 0.5 nM. For `CC1(C)CCC(c2ccc(Nc3cc(NC(=O)C4CC4)nc4[nH]c(C(F)F)nc34)c(S(C)(=O)=O)c2)O1` (stereo not shown) [I-332], the Kd was 0.1 to 0.5 nM. With `C[S+]([O-])c1ccccc1Nc1cc(NC(=O)C2CC2)nc2[nH]c(C(F)F)nc12` (stereo not shown) [I-333, N-(2-(difluoromethyl)-7-((2-(methylsulfinyl)phenyl)amino)-3H-imidazo[4,5-b]pyridin-5-yl)cyclopropanecarboxamide] the Kd was 1 to 10 nM. `Cc1nc2c(Nc3ccc(C4CCCO4)cc3S(C)(=O)=O)cc(NC(=O)C3CC3)nc2[nH]1` (stereo not shown) [I-334, N-(2-methyl-7-((2-(methylsulfonyl)-4-(tetrahydrofuran-2-yl)phenyl)amino)-3H-imidazo[4,5-b]pyridin-5-yl)cyclopropanecarboxamide] was tested, and the Kd was under 0.1 nM. Molecule `CS(=O)(=O)c1cc(C2CCCO2)ccc1Nc1cc(NC(=O)C2CC2)nc2[nH]c(C(F)F)nc12` (stereo not shown) [I-335, N-(2-(difluoromethyl)-7-((2-(methylsulfonyl)-4-(tetrahydrofuran-2-yl)phenyl)amino)-3H-imidazo[4,5-b]pyridin-5-yl)cyclopropanecarboxamide] has a Kd of over 10 nM. For `Cc1nc2c(Nc3ccccc3[S+](C)[O-])cc(NC(=O)C3CC3)nc2[nH]1` (stereo not shown) [I-336, N-(2-methyl-7-((2-(methylsulfinyl)phenyl)amino)-3H-imidazo[4,5-b]pyridin-5-yl)cyclopropanecarboxamide], the Kd was 1 to 10 nM. For `CS(=O)(=O)c1cc(C2CCOCC2)ccc1Nc1cc(NC(=O)C2CC2(F)F)nc2[nH]c(C(F)F)nc12` (stereo not shown) [I-337, N-(2-(difluoromethyl)-7-((2-(methylsulfonyl)-4-(tetrahydro-2H-pyran-4-yl)phenyl)amino)-3H-imidazo[4,5-b]pyridin-5-yl)-2,2-difluorocyclopropane-1-carboxamide], the Kd was 1 to 10 nM. With `Cc1cc(-c2ccc(Nc3cc(NC(=O)C4CC4(F)F)nc4[nH]c(C(F)F)nc34)c(S(C)(=O)=O)c2)nn1C` (stereo not shown) [I-338, N-(2-(difluoromethyl)-7-((4-(1,5-dimethyl-1H-pyrazol-3-yl)-2-(methylsulfonyl)phenyl)amino)-3H-imidazo[4,5-b]pyridin-5-yl)-2,2-difluorocyclopropane-1-carboxamide] the Kd was 1 to 10 nM.
